Data taken from patent US9957236B2, “Selective inhibitors interfering with fibroblast growth factor receptor and FRS2 interaction for the prevention and treatment of cancer and other diseases” (LIMITED LIABILITY COMPANY “RUSSIAN PHARMACEUTICAL …, priority 2014, dated 2018).

Legend:
anti-FGF-2 antibody = assay: Enzyme-linked immune assay, FGF-2 binding to immobilized anti-FGF-2 antibody; conditions: concentration of 1 to 1,000 nM
Description: The next task was to assess influence of inhibitor RPT835 on binding of FGF-2 and FGFR2-Fc. […] In order to exclude unspecific effect of RPT835 on binding, one more enzyme-linked immune assay was carried out, in which the cavities were covered with immobilized anti-FGF-2 antibody. FGF-2±RPT835 in different concentrations is added to the cavities.

hFOB cells = assay: Proliferation of hFOB cells expressing FGFR2 IIIc; type: cell-based, human; conditions: RPT835 1 micron, FGF-1 100 ng/ml
Description: (§1) The research assessed the influence of inhibitor RPT835 determined by formula II of this invention, intervention with interaction of FGFR2 represented by two most frequent isoforms IIIb and IIIc with FRS2. For this, human cell line of embryonal osteoblasts (hFOB) expressing only FGFR2 […], and human cell line of breast cancer SUM-52 expressing FGFR2 IIIb (all main versions of isoform—C1, C2, C3) were chosen.
(§2) Cells were divided into the groups: • 1a) hFOB • 1b) hFOB, stimulating FGF-1 (100 ng/ml) • 1c) hFOB, cultivation with RPT835 (1 micron) and stimulation of FGF-1 (100 ng/ml) • 2a) SUM-52 • 2b) SUM-52, stimulation of FGF-1 (100 ng/ml) • 2c) SUM-52, cultivation with RPT835 (1 micron) and stimulation of FGF-1 (100 ng/ml)

[1] = test system: HS578T breast cancer cells; assay: Crystal Violet proliferation assay, HS578T; type: cell-based; conditions: low FGFR2 expression, bFGF 100 ng/ml, 7 days
Excerpt: (§3) This research used additional cell lines: SKOV3 (ovarian cancer, ATCC # HTB-77), HS578T (breast cancer, ATCC # HTB-126), T47D (breast cancer, ATCC #HTB-1336), modified line of non-small cells lung cancer A549, line of metastatic melanoma of skin Mel Kor (RF Patent No. 2287578), and additional study of antiangiogenic activity—cell line SVEC-4-10 (endothelial cells, ATCC #CRL-2181).
(§4) The cells were cultivated in environment RPMI-1640 (PANECO) (SKOV3, HS578T, T47D, Mel-Kor) or DMEM (PANECO) (SVEC-4-10) containing 10% of embryonal serum cattle (FCS, HyClone), 2 mM glutamine (PANECO), antibiotics (100 IU/mL penicillin and […] streptomycin (all PANECO)) at 37° C. and 5% CO2. Cells at 70-80% monolayer were used for the experiments.
(§5) The cells were planted in low density (30 t of cells/ml) in triplets on a 96-cavity plate in an environment containing 0.1% of FCS serum. […] Growth of cells was determined by the modified “Crystal Violet mitogenic method” for 7 days after the experiment start. […] The dye was dissolved in ethanol and measured on a spectrophotometer at 540-560 nm. The curve of cell proliferative activity inhibition was built by the dependence of the percent of the cell quantity (Y axis) on concentration of inhibitor RPT835 in the cavity of the plate (X axis). […]

T47D breast cancer cells = assay: Crystal Violet proliferation assay, T47D; type: cell-based; conditions: hardly expressed FGFR2, bFGF 100 ng/ml, 7 days
Excerpt: as §3, §4, §5

[2] = test system: modified line of non-small cells lung cancer A549; assay: Crystal Violet proliferation assay, modified A549; type: cell-based; conditions: Homo sapiens; modified A549 with pronounced expression of FGFR2
Excerpt: as §3, §4, §5

Acute toxicity = type: in vivo; conditions: acute administration
Excerpt: Besides, acute toxicity of inhibitor RPT835 was studied in the following volume in a separate research: • Acute toxicity of the medicine was researched. […] The state of the animals after acute administration testifies of good tolerability of the medicine in doses exceeding the maximal therapeutic ones (about 4.3 mcg/kg) tens—hundreds of times.

[3] = reaction of immune complexes, general anaphylaxis, degranulation of mast cells, conjuctival test
FRS2α = target: T1, FRS2α (Homo sapiens, UniProt Q8WU20); assay: FRS2α phosphorylation in SUM-52 cells (Western blotting); type: cell-based; parameters: endogenous in cells; host or cells: hFOB; conditions: SUM-52 (FGFR2 IIIb), RPT835 1 micron, FGF-1 100 ng/ml
T1 sequence (Q8WU20 1-508): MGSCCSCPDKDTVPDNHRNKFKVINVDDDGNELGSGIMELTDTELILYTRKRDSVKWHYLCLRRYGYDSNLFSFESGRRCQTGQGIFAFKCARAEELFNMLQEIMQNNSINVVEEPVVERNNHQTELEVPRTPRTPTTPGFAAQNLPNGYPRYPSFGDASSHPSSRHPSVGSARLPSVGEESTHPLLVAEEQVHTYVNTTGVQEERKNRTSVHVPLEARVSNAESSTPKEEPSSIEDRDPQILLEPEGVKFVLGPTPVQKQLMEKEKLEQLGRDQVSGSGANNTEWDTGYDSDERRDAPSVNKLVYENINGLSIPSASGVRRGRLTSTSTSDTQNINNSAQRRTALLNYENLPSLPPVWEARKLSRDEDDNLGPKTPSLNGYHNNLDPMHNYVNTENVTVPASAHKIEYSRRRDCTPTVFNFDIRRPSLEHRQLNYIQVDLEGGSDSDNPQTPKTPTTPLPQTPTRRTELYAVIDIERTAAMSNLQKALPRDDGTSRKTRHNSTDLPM
Description: as §1, §2

In the case of `Cc1cc([N+](=O)[O-])c(NS(=O)(=O)c2cccc(C(=O)O)c2)cc1-c1cccnc1` [RPT835, 3-(N-(4-methyl-2-nitro-5-(pyridin-3-yl)phenyl)sulfamoyl)benzoic acid], the “binding of FGF-2 with anti-FGF-2 antibody” value (anti-FGF-2 antibody) is reported as “did not influence on binding of FGF-2 with anti-FGF-2 antibody”, the proliferation of cells (hFOB cells) is reported as “reliably suppressed proliferation” and the “inhibition of proliferative activity” value [1] is reported as “moderate effect”. For the same compound, the “inhibition of proliferative activity” value (T47D breast cancer cells) was “did not block”, the IC50 [2] was 10 nM and the “toxicity class (Hodge; Sidorov)” value (Acute toxicity; 14 days observation, necropsy) was “IV class of low toxicity”. The LD50 at 14 days (Acute toxicity; in vivo, read-out: Median lethal dose (LD50)) was greater than 2000 mg/kg, the allergic properties [3] was “does not show any allergic properties” and the FRS2α phosphorylation level (FRS2α) was “completely suppressed the phosphorylation”.
